This note sets out measurements from patent US11014917B2, “5-fluoro-c-(aryl or heterocyclyl)-glycoside derivatives useful as dual SGLT1 / SGLT2 modulators” (Janssen Pharmaceutica NV, priority 2017, dated 2021).

For one assay, the target named is T1, human SGLT1 (Homo sapiens, UniProt P13866).
T1 construct: expressed in transfected cells
T1 sequence (P13866 1-664): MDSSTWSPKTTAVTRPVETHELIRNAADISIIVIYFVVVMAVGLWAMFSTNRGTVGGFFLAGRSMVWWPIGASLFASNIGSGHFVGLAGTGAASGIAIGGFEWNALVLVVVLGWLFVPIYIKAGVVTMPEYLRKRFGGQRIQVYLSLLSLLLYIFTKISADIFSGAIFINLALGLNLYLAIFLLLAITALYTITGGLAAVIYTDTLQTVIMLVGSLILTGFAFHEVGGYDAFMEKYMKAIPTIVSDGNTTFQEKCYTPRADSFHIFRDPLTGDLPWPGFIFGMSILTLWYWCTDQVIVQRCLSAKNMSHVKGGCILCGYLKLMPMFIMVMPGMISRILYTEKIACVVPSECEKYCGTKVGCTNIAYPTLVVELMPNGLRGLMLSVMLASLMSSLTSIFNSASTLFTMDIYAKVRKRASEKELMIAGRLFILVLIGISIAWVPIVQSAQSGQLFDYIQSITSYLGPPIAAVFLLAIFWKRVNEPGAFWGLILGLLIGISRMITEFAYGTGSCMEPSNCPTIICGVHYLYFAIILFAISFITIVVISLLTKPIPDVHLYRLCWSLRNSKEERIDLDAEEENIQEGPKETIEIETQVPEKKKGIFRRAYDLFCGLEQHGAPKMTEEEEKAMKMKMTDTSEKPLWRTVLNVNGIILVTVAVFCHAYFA
The assay can be described thus: SGLT1 assay: Na-dependent 14C-AMG uptake in CHO-K1 cells stably expressing human SGLT1. In kind it is cell-based. To be noted: for SGLT1 %-inhibition: @ 0.3 μM; for IC50: average if tested more than once. An outline of the steps:
(§1)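 Stable CHO-K1 lines were pretreated 24 h with 10 mM Na-butyrate, then compound (0.001–10 μM) for 10 min in Na+ buffer (137 mM NaCl, pH 7.4). Uptake of 14C-AMG (500 μM final, 0.07 μCi/well) over 2 h at 37° C measured by scintillation; %-inhibition or IC50.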

The next assay addresses T2, human SGLT2 (Homo sapiens, UniProt P31639).
T2 construct: expressed in transfected cells
T2 sequence (P31639 1-672): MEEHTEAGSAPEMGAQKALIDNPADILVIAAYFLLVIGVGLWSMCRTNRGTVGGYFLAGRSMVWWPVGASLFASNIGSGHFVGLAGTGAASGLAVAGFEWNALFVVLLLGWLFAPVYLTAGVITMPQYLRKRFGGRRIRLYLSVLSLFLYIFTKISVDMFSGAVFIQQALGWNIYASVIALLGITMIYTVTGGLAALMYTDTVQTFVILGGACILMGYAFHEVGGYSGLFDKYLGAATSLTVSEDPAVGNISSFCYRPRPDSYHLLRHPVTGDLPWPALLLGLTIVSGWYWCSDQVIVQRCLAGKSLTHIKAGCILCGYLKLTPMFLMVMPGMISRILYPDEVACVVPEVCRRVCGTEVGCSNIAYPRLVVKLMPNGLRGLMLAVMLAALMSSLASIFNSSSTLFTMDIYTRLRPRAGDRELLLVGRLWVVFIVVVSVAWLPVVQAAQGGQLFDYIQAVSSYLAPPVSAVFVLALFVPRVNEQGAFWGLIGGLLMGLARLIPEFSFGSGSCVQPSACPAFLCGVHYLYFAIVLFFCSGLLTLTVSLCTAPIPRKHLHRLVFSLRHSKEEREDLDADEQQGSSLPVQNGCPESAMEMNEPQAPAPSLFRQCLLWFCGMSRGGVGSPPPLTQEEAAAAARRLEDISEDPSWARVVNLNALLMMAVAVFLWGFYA
The assay can be described thus: SGLT2 assay: Na-dependent 14C-AMG uptake in CHO-K1 cells stably expressing human SGLT2. In kind it is cell-based. To be noted: for SGLT2 %-inhibition: @ 0.3 μM; for IC50: average if tested more than once. An outline of the steps:
as §1

As to `[2H]C([2H])(c1ccc2c(c1)OCCO2)c1cc([C@@H]2O[C@H](CO)[C@@H](F)[C@H](O)[C@H]2O)ccc1CC` [Compound 157], the SGLT1 %-inhibition on human SGLT1 came out at 47.7% @ 0.3 μM. At human SGLT2, this compound had an SGLT2 %-inhibition of 61.9% @ 0.3 μM.
The like results for `CCc1ccc([C@@H]2O[C@H](CO)[C@@H](F)[C@H](O)[C@H]2O)cc1Cc1ccc2c(c1)OC(F)(F)O2` [Compound 158] were, in that order, 2.6% @ 0.3 μM and 18.0% @ 0.3 μM.
For `CCc1ccc([C@@H]2O[C@H](CO)[C@@H](F)[C@H](O)[C@H]2O)cc1Cc1ccc2c(c1)OC(F)(F)O2` [Compound 159], in that order: 6.0% @ 0.3 μM and 0.0% @ 0.3 μM.
On to `[2H]C([2H])([2H])Oc1c([C@@H]2O[C@H](CO)[C@@H](F)[C@H](O)[C@H]2O)cc(Cc2ccc3c(c2)OCCO3)c2c1CCO2` [Compound 160, (2S,3R,4R,5S,6R)-2-[7-(2,3-dihydro-1,4-benzodioxin-6-ylmethyl)-4-(trideuteriomethoxy)-2,3-dihydrobenzofuran-5-yl]-5-fluoro-6-(hydroxymethyl)tetrahydropyran-3,4-diol], for which the values for the half-inhibitory concentration (IC50) at human SGLT1 and against human SGLT2 were 71 nM and 8 nM, respectively.
The like results for `[2H]C([2H])([2H])Oc1c([C@@H]2O[C@H](CO)[C@@H](F)[C@H](O)[C@H]2O)cc(C([2H])([2H])c2ccc3c(c2)OCCO3)c2c1CCO2` [Compound 161, (2S,3R,4R,5S,6R)-2-(7-((2,3-dihydrobenzo[b][1,4]dioxin-6-yl-)methyl-d2)-4-(methoxy-d3)-2,3-dihydrobenzofuran-5-yl)-5-fluoro-6-(hydroxymethyl)tetrahydro-2H-pyran-3,4-diol] were, in that order, 52 nM and 7 nM.
For `[2H]C([2H])(c1ccc2c(c1)OCCO2)c1cc([C@@H]2O[C@H](CO)[C@@H](F)[C@H](O)[C@H]2O)c(OC)c2c1OCC2` [Compound 163, (2S,3R,4R,5S,6R)-2-[7-[dideuterio(2,3-dihydro-1,4-benzodioxin-6-yl)methyl]-4-methoxy-2,3-dihydrobenzofuran-5-yl]-5-fluoro-6-(hydroxymethyl)tetrahydropyran-3,4-diol], in that order: 50 nM and 8 nM.
The like results for `[2H]C([2H])(c1ccc2c(c1)OCCO2)c1cc([C@@H]2O[C@H](CO)[C@@H](F)[C@H](O)[C@H]2O)c(F)cc1OC` [Compound 165] were, in that order, 56 nM and 16 nM.
As to `[2H]C([2H])(c1ccc2c(c1)OCCO2)c1cc([C@@H]2O[C@H](CO)[C@@H](F)[C@H](O)[C@H]2O)ccc1Cl` [Compound 166], the IC50 – broadly, the concentration that inhibits the measured activity by half – is 245 nM against human SGLT1 and 11 nM against human SGLT2.
On human SGLT1, `[2H]C([2H])(c1ccc2c(c1)OCCO2)c1cc([C@@H]2O[C@H](CO)[C@@H](F)[C@H](O)[C@H]2O)ccc1C` [Compound 167] showed an SGLT1 %-inhibition of 37.9% @ 0.3 μM. Besides, the SGLT2 %-inhibition on human SGLT2 stood at 80.1% @ 0.3 μM.
The like results for `[2H]C([2H])(c1ccc2c(c1)CCCO2)c1cc([C@@H]2O[C@H](CO)[C@@H](F)[C@H](O)[C@H]2O)ccc1CC` [Compound 169] were, in that order, 37.2% @ 0.3 μM and 72.7% @ 0.3 μM.
For `[2H]C([2H])(c1ccc2c(c1)CCCO2)c1cc([C@@H]2O[C@H](CO)[C@@H](F)[C@H](O)[C@H]2O)ccc1OC` [Compound 171], in that order: 27.1% @ 0.3 μM and 69.9% @ 0.3 μM.
With `[2H]C1([2H])Oc2ccc(Cc3cc([C@@H]4O[C@H](CO)[C@@H](F)[C@H](O)[C@H]4O)c(OC)c4c3OCC4)cc2OC1([2H])[2H]` [Compound 172, (2S,3R,4R,5S,6R)-5-fluoro-6-(hydroxymethyl)-2-[4-methoxy-7-[(2,2,3,3-tetradeuterio-1,4-benzodioxin-6-yl)methyl]-2,3-dihydrobenzofuran-5-yl]tetrahydropyran-3,4-diol], the IC50 amounted to 45 nM against human SGLT1 and 7 nM at human SGLT2.
The like results for `[2H]C1([2H])Oc2ccc(Cc3cc([C@@H]4O[C@H](CO)[C@@H](F)[C@H](O)[C@H]4O)ccc3OC)cc2OC1([2H])[2H]` [Compound 173] were, in that order, 190 nM and 13 nM.
The like results for `[2H]C1([2H])Oc2ccc(Cc3cc([C@@H]4O[C@H](CO)[C@@H](F)[C@H](O)[C@H]4O)ccc3CC)cc2OC1([2H])[2H]` [Compound 175] were, in that order, 87 nM and 12 nM.
`[2H]C([2H])(c1ccc2c(c1)OC([2H])([2H])C([2H])([2H])O2)c1cc([C@@H]2O[C@H](CO)[C@@H](F)[C@H](O)[C@H]2O)ccc1CC` [Compound 176] came in with an SGLT1 %-inhibition at human SGLT1 of 68.9% @ 0.3 μM. At human SGLT2, this compound registered an SGLT2 %-inhibition of 56.1% @ 0.3 μM.
On to `[2H]C1([2H])Oc2ccc(Cc3cc([C@@H]4O[C@H](CO)[C@@H](F)[C@H](O)[C@H]4O)c4c(c3CC)CCO4)cc2OC1([2H])[2H]` [Compound 179], for which the IC50 was determined as 60 nM on human SGLT1 and 15 nM against human SGLT2.
With `CCc1c(Cc2ccc3c(c2)OCCO3)cc([C@@H]2O[C@H](CO)[C@@H](F)[C@H](O)[C@H]2O)c2c1CCO2` [Compound 180], the 50% inhibitory concentration (IC50) was 61 nM against human SGLT1 and 25 nM at human SGLT2.
Compound `[2H]C1([2H])Oc2ccc(Cc3cc([C@@H]4O[C@H](CO)[C@@H](F)[C@H](O)[C@H]4O)cc4c3CCO4)cc2OC1([2H])[2H]` [Compound 181] returned an SGLT1 %-inhibition at human SGLT1 of 67.0% @ 0.3 μM. At human SGLT2, this compound yielded an SGLT2 %-inhibition of 85.0% @ 0.3 μM.
For the compound `[2H]C([2H])([2H])Oc1cc(CC)c(Cc2ccc3c(c2)OCCO3)cc1[C@@H]1O[C@H](CO)[C@@H](F)[C@H](O)[C@H]1O` [Compound 182], the IC50 against human SGLT1 came to 138 nM; against human SGLT2 it was 11 nM.
